Laboratory results taken from US20030144317A1, “Novel benzoylecgonine compositions and methods for producing them” (priority 2001, published 2003).

What was measured:
[1] = Stability testing (absence of water) of the composition produced in Example 3; settings: for relative amount of component at end of reaction (start of the stability trial): composition of Example 3 (no water added; H2O content 0.12 w/w), b61 reads the values as % of the composition
[2] = Stability testing (initial 5% w/w water) of the composition produced in Example 4; settings: for relative amount of component at end of reaction (start of the stability trial): composition of Example 4 (initial 5% w/w water; H2O content 4.76 w/w), b61 reads the values as % of the composition
[3] = composition of Example 3 (absence of water), 25° C., 13 days
[4] = composition of Example 3 (absence of water), 40° C., 13 days
[5] = composition of Example 4 (initial 5% w/w water), 25° C., 13 days
[6] = composition of Example 4 (initial 5% w/w water), 40° C., 13 days

Compound | relative amount of component, stability at 25° C. after 13 days [1, 3] | relative amount of component, stability at 40° C. after 13 days [1, 4] | relative amount of component at end of reaction (start of the stability trial) ([1]; day 15 of reaction at 60° C.) | relative amount of component, stability at 25° C. after 13 days [2, 5] | relative amount of component, stability at 40° C. after 13 days [2, 6] | relative amount of component at end of reaction (start of the stability trial) ([2]; day 16 of reaction at 50° C.) | BME % (w/w), stability at 25° C. after 13 days [1, 3] | BME % (w/w), stability at 40° C. after 13 days [1, 4] | BME % (w/w) at end of reaction (start of the stability trial) ([1]; composition of Example 3 (absence of water), day 15 of reaction at 60° C.) | BME % (w/w), stability at 25° C. after 13 days [2, 5] | BME % (w/w), stability at 40° C. after 13 days [2, 6] | BME % (w/w) at end of reaction (start of the stability trial) ([2]; composition of Example 4 (initial 5% w/w water), day 16 of reaction at 50° C.)
O=C(O)c1ccccc1 [BA, benzoic acid] | 27.35 | 28.75 | 26.05 | 9.17 | 9.68 | 8.99 | – | – | – | – | – | –
CN1[C@H]2CC[C@@H]1[C@@H](C(=O)O)[C@@H](OC(=O)c1ccccc1)C2 [BEc, benzoylecgonine] | 3.99 | 4.28 | 4.097 | 64.02 | 66.31 | 63.8 | – | – | – | – | – | –
COC(=O)[C@H]1[C@@H](OC(=O)c2ccccc2)C[C@@H]2CC[C@H]1N2C [BME, 3-benzoyloxy-2-carbomethyoxy-8-methyl-8-azabicyclo[3.2.1]octane] | 1.19 | 0.90 | 1.76 | 0.84 | 0.46 | 0.95 | 0.08 % (w/w) | 0.06 % (w/w) | 0.13 % (w/w) | 0.07 % (w/w) | 0.04 % (w/w) | 0.08 % (w/w)
COC(=O)C1=CC[C@@H]2CC[C@H]1N2C [Methyl Ecd] | 1.33 | 1.26 | 1.42 | 0.86 | 0.80 | 1.00 | – | – | – | – | – | –
